Assay results: patent publication US10478406B2, “High-pH solid-state epinephrine formulation” (HARC Therapeutics AG, priority 2019, dated 2019)

Assay: Suspension assay testing: epinephrine dissolved in suspension
Format: physicochemical
From the text: Sample numbers /1 and /2 were not acidic. To confirm that these samples produced solid state epinephrine rather than dissolved epinephrine, I had these samples assayed to determine whether the epinephrine had in fact dissolved into solution and if so, by what amount.
Sample numbers /3 and /4 were basic pH. I thus had these samples assayed to determine whether the epinephrine dissolved into solution and if so, by what amount.

## CNC[C@H](O)c1ccc(O)c(O)c1 [Epinephrine, 4-[(1 R)-1-Hydroxy-2-(methylamino)ethyl]-1,2-benzenediol]
Basic pH 8.5
  total epinephrine that dissolves in water: about 0.1%
pH 7, without added acid
  total epinephrine that dissolves in water: about 0.45%
